{
  "source": "the supplement of paper PMC10307832",
  "assay_in_all_cases": "relative viability (nuclei count vs DMSO), 5 days (fraction); higher = more cells survive",
  "key": {"Motesanib": {"compound": "CC1(C)CNc2cc(NC(=O)c3cccnc3NCc3ccncc3)ccc21 [Motesanib]", "method_in_brief": "(§1)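 Lung cancer cell lines were seeded into 1536-well plates, kept overnight at 37 °C and pinned with five library-drug doses (not always all listed) spaced by √10. After 5 days, nuclei were Hoechst-stained, imaged at 4× and counted with MetaXpress. Viability is treated-well nuclei over vehicle-well nuclei, taken as a median across plates. Plates needed control CV below 25% and at least one doubling.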"}, "[1]": {"compound": "C[C@@]1(C(=O)Nc2ccc(F)nc2)CCCN1c1nc(Nc2cc(C3CC3)n[nH]2)c2cccn2n1", "method_in_brief": "as §1"}, "Motesanib + Decitabine": {"compound": "CC1(C)CNc2cc(NC(=O)c3cccnc3NCc3ccncc3)ccc21 [Motesanib] + Nc1ncn([C@H]2C[C@H](O)[C@@H](CO)O2)c(=O)n1 [Decitabine] (partner 2 µM)", "method_in_brief": "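One day after seeding in 1536-well plates, lung cancer cell lines were dosed by pin tool. Dosing was either single-drug or a fixed anchor-drug dose plus five library-drug doses (not always all listed) in √10 steps. After 5 days, nuclei were stained in one fix-and-stain step and counted on 4× images, and relative viability is the nuclei count of treated wells over that of vehicle wells, given as the median of duplicate plates.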"}},
  "data": [
    {"cell line": "UMC-11", "values": [
      {"measurement": "relative viability", "setting": "Motesanib; 0.01 µM", "value": 0.951},
      {"measurement": "relative viability", "setting": "Motesanib; 0.03162 µM", "value": 1.07},
      {"measurement": "relative viability", "setting": "Motesanib; 0.1 µM", "value": 0.872},
      {"measurement": "relative viability", "setting": "Motesanib; 0.3162 µM", "value": 1},
      {"measurement": "relative viability", "setting": "Motesanib; 1 µM", "value": 1.13},
      {"measurement": "relative viability", "setting": "[1]; 0.04 µM", "value": 0.981},
      {"measurement": "relative viability", "setting": "[1]; 0.1265 µM", "value": 1.03},
      {"measurement": "relative viability", "setting": "[1]; 0.4 µM", "value": 0.907},
      {"measurement": "relative viability", "setting": "[1]; 1.265 µM", "value": 0.797},
      {"measurement": "relative viability", "setting": "Motesanib + Decitabine; first compound 0.01 µM", "value": 0.611},
      {"measurement": "relative viability", "setting": "Motesanib + Decitabine; first compound 0.03162 µM", "value": 0.677},
      {"measurement": "relative viability", "setting": "Motesanib + Decitabine; first compound 0.1 µM", "value": 0.331},
      {"measurement": "relative viability", "setting": "Motesanib + Decitabine; first compound 0.3162 µM", "value": 0.653},
      {"measurement": "relative viability", "setting": "Motesanib + Decitabine; first compound 1 µM", "value": 0.724}
    ]}
  ]
}
